Legend:
CDK2 = target: T1, CDK2 (Homo sapiens, UniProt P24941); assay: CDK protein degradation activity (Western blotting), CDK2; assay type: cell-based; details: MDA-MB-231 cells, 16 hours, Western blot
T1 construct: endogenous in cells; host or cells: MDA-MB-231
Procedure, shortened: (§1)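 MDA-MB-231 cells treated 16 h with compound at 100 nM, 1 μM or 10 μM, with DMSO as control. Lysates run on SDS-PAGE and immunoblotted for CDK2, CDK9 and tubulin; band levels quantified by densitometry.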

CDK9 = target: T2, CDK9 (Homo sapiens, UniProt P50750); assay: CDK protein degradation activity (Western blotting), CDK9; assay type: cell-based; details: MDA-MB-231 cells, 16 hours, Western blot
T2 construct: endogenous in cells; host or cells: MDA-MB-231
Procedure, shortened: as §1

T2 sequence (P50750 whole entry): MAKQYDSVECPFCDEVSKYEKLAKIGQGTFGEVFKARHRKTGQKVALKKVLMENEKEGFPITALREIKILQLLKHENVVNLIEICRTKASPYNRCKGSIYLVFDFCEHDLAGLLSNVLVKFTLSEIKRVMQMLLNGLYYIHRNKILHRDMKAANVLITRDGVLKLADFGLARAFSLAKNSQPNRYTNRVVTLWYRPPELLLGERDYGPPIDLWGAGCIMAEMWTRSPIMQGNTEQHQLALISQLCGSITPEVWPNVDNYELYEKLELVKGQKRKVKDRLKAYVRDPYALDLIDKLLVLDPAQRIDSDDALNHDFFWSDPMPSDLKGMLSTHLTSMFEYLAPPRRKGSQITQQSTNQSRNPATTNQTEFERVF

| SMILES | Enzyme degradation CDK2 (% remaining) @ 0.1 μM (CDK2) | Enzyme degradation CDK2 (% remaining) @ 1 μM (CDK2) | Enzyme degradation CDK2 (% remaining) @ 10 μM (CDK2) | Enzyme degradation CDK9 (% remaining) @ 0.1 μM (CDK9) | Enzyme degradation CDK9 (% remaining) @ 1 μM (CDK9) | Enzyme degradation CDK9 (% remaining) @ 10 μM (CDK9) |
| --- | --- | --- | --- | --- | --- | --- |
| O=C1CC[C@H](N2C(=O)c3ccc(N4CC(C(=O)N5CCC(CN6CCN(c7ccc(Nc8ncnc9c8ncn9C8CC(NC(=O)c9cccc(F)n9)C8)cc7)CC6)CC5)C4)cc3C2=O)C(=O)N1 (stereo partly drawn) [Compound 466, N-((1s,3s)-3-(6-((4-(4-((1-(1-(2-(2,6-dioxopiperidin-3-yl)-1,3-dioxoisoindolin-5-yl)azetidin-3-carbonyl)piperidin-4-yl)methyl)piperazin-1-yl)phenyl)amino)-9H-purin-9-yl)cyclobutyl)-6-fluoropicolinamide] | 30% | 20% | 20% | 0/0/0% | 0/0/0% | 0/0/0% |
| Cc1cccc(C(=O)NC2CC(n3cnc4c(NC5CCN(CCC6CCN(C(=O)COc7cccc8c7C(=O)N([C@H]7CCC(=O)NC7=O)C8=O)CC6)CC5)ncnc43)C2)n1 (stereo partly drawn) [Compound 32, N-((1s,3s)-3-(6-((1-(2-(1-(2-((2-(2,6-dioxopiperidin-3-yl)-1,3-dioxoisoindolin-4-yl)oxy)acetyl)piperidin-4-yl)ethyl)piperidin-4-yl)amino)-9H-purin-9-yl)cyclobutyl)-6-methylpicolinamide] | 60% | 20% | 20% | 50% | 0% | 0% |
| O=C1CCC(N2C(=O)c3ccc(N4CCC(CN5CCN(c6ccc(Nc7ncnc8c7ncn8[C@H]7C[C@@H](NC(=O)c8cccc(Cl)n8)C7)cc6)CC5)CC4)cc3C2=O)C(=O)N1 (stereo partly drawn) [Compound 391, 6-chloro-N-((1s,3s)-3-(6-((4-(4-((1-(2-(2,6-dioxopiperidin-3-yl)-1,3-dioxoisoindolin-5-yl)piperidin-4-yl)methyl)piperazin-1-yl)phenyl)amino)-9H-purin-9-yl)cyclobutyl)picolinamide] | 10/10/10% | 10/10/10% | 10/10/10% | 0/0/0% | 0/0/0% | 0/0/0% |
| Cc1cccc(C(=O)N[C@H]2C[C@@H](n3cnc4c(Nc5ccc(N6CCN(CCC7CCN(C(=O)C8CCN(c9ccc%10c(c9)C(=O)N([C@H]9CCC(=O)NC9=O)C%10=O)CC8)CC7)CC6)cc5)ncnc43)C2)n1 [Compound 389, N-((1s,3s)-3-(6-((4-(4-(2-(1-(1-(2-(2,6-dioxopiperidin-3-yl)-1,3-dioxoisoindolin-5-yl)piperidin-4-carbonyl)piperidin-4-yl)ethyl)piperazin-1-yl)phenyl)amino)-9H-purin-9-yl)cyclobutyl)-6-methylpicolinamide] | 40% | 30% | 30% | 0/0/0% | 0/0/0% | 0/0/0% |
| O=C1CCC(n2nnc3ccc(N4CC(N5CCN(c6ccc(Nc7ncnc8c7ncn8[C@H]7C[C@@H](NC(=O)Cc8ccccc8)C7)cc6)CC5)C4)cc3c2=O)C(=O)N1 (stereo partly drawn) [Compound 346, N-((1s,3s)-3-(6-((4-(4-(1-(3-(2,6-dioxopiperidin-3-yl)-4-oxo-3,4-dihydrobenzo[d][1,2,3]triazin-6-yl)azetidin-3-yl)piperazin-1-yl)phenyl)amino)-9H-purin-9-yl)cyclobutyl)-2-phenylacetamide] | 10% | 0% | 0% | 30/30/30% | 30/30/30% | 30/30/30% |
| O=C1CCC(c2cccc(OCC(=O)N3CCC4(CC(N5CCN(c6ccc(Nc7ncnc8c7ncn8[C@H]7C[C@@H](NC(=O)Cc8ccccc8)C7)cc6)CC5)C4)C3)c2)C(=O)N1 (stereo partly drawn) [Compound 269, N-((1s,3s)-3-(6-((4-(4-(6-(2-(3-(2,6-dioxopiperidin-3-yl)phenoxy)acetyl)-6-azaspiro[3.4]octan-2-yl)piperazin-1-yl)phenyl)amino)-9H-purin-9-yl)cyclobutyl)-2-phenylacetamide] | 10/10/10% | 10/10/10% | 10/10/10% | 30% | 10% | 10% |
| Cc1cccc(C(=O)N[C@H]2C[C@H](n3cnc4c(NCCCN5CCN(C(=O)CNc6ccc7c(c6)C(=O)N([C@@H]6CCC(=O)NC6=O)C7=O)CC5)ncnc43)C2)n1 [Compound 141, N-((1r,3r)-3-(6-((3-(4-((2-(2,6-dioxopiperidin-3-yl)-1,3-dioxoisoindolin-5-yl)glycyl)piperazin-1-yl)propyl)amino)-9H-purin-9-yl)cyclobutyl)-6-methylpicolinamide] | 70% | 50% | 60% | 90% | 80% | 50% |
| O=C1CC[C@H](n2nnc3ccc(N4CCN(C5CCN(c6ccc(Nc7ncnc8c7ncn8C7CC(NC(=O)Cc8ccccc8)C7)cc6)CC5)CC4)cc3c2=O)C(=O)N1 (stereo partly drawn) [Compound 357, N-((1s,3s)-3-(6-((4-(4-(4-(3-(2,6-dioxopiperidin-3-yl)-4-oxo-3,4-dihydrobenzo[d][1,2,3]triazin-6-yl)piperazin-1-yl)piperidin-1-yl)phenyl)amino)-9H-purin-9-yl)cyclobutyl)-2-phenylacetamide] | 70% | 20% | 20% | 80% | 30% | 30% |
| O=C1CC[C@H](N2C(=O)c3cccc(CCCCN4CCC(CN5CCN(c6ccc(Nc7ncnc8c7ncn8[C@H]7C[C@@H](NC(=O)c8cccc(C(F)(F)F)n8)C7)cc6)CC5)CC4)c3C2=O)C(=O)N1 [Compound 427, N-((1s,3s)-3-(6-((4-(4-((1-(4-(2-(2,6-dioxopiperidin-3-yl)-1,3-dioxoisoindolin-4-yl)butyl)piperidin-4-yl)methyl)piperazin-1-yl)phenyl)amino)-9H-purin-9-yl)cyclobutyl)-6-(trifluoromethyl)picolinamide] | 20/20/20% | 20/20/20% | 20/20/20% | 0% | 0% | 20% |
| Cc1cccc(C(=O)NC2CC(n3cnc4c(NC5CCN(C(=O)CC6CCN(c7ccc8c(c7)C(=O)N([C@H]7CCC(=O)NC7=O)C8=O)CC6)CC5)ncnc43)C2)n1 (stereo partly drawn) [Compound 53, N-((1s,3s)-3-(6-((1-(2-(1-(2-(2,6-dioxopiperidin-3-yl)-1,3-dioxoisoindolin-5-yl)piperidin-4-yl)acetyl)piperidin-4-yl)amino)-9H-purin-9-yl)cyclobutyl)-6-methylpicolinamide] | 90% | 80% | 70% | 90% | 90% | 10% |
| Cc1cccc(C(=O)NC2CC(n3cnc4c(NCCCN5CCN(CC6CCN(C(=O)CNc7cccc8c7C(=O)N([C@@H]7CCC(=O)NC7=O)C8=O)CC6)CC5)ncnc43)C2)n1 (stereo partly drawn) [Compound 143, N-((1r,3r)-3-(6-((3-(4-((1-((2-(2,6-dioxopiperidin-3-yl)-1,3-dioxoisoindolin-4-yl)glycyl)piperidin-4-yl)methyl)piperazin-1-yl)propyl)amino)-9H-purin-9-yl)cyclobutyl)-6-methylpicolinamide] | 80% | 50% | 100% | 0/0/0% | 0/0/0% | 0/0/0% |
| Cc1cccc(C(=O)N[C@H]2C[C@@H](n3cnc4c(NCc5cccc(N6CCN(CC7CCN(c8cccc9c8C(=O)N([C@H]8CCC(=O)NC8=O)C9=O)CC7)CC6)c5)ncnc43)C2)n1 [Compound 136, N-((1s,3s)-3-(6-((3-(4-((1-(2-(2,6-dioxopiperidin-3-yl)-1,3-dioxoisoindolin-4-yl)piperidin-4-yl)methyl)piperazin-1-yl)benzyl)amino)-9H-purin-9-yl)cyclobutyl)-6-methylpicolinamide] | 100% | 100% | 60% | 10% | 70% | 40% |
| O=C1CC[C@@H](c2ccc(OCC(=O)N3CCC(OCCN4CCN(c5ccc(Nc6ncnc7c6ncn7C6CC(NC(=O)Cc7ccccc7)C6)cc5)CC4)CC3)cc2)C(=O)N1 (stereo partly drawn) [Compound 250, N-((1s,3s)-3-(6-((4-(4-(2-((1-(2-(4-(2,6-dioxopiperidin-3-yl)phenoxy)acetyl)piperidin-4-yl)oxy)ethyl)piperazin-1-yl)phenyl)amino)-9H-purin-9-yl)cyclobutyl)-2-phenylacetamide] | 60% | 40% | 30% | 40% | 10% | 0% |
